Results reported in PMC4061985 (Journal of immunology (Baltimore, Md. : 1950), 2009).
Residues, ends and D or L forms follow the SMILES beside them.

target: HLA-DR0901 protein (Homo sapiens, UniProt P01903+P01911, A100R/A103E/D57H/D86V/F55Y/F60I/F76Y/I96F/K127E/L162R/M171V/P40D/Q125H/Q99R/R33Q/R42F/S133A/S66N/T210M/V115G/W38K/Y107V/Y59G/Y89S); assay: Peptide binding competition assay, DR0901

In order of rising Kd:
1. CC[C@H](C)[C@H](NC(=O)[C@H](Cc1ccccc1)NC(=O)[C@H](CC(=O)O)NC(=O)[C@H](CC(C)C)NC(=O)[C@H](CO)NC(=O)[C@H](Cc1ccc(O)cc1)NC(=O)[C@H](CC(N)=O)NC(=O)[C@H](Cc1ccccc1)NC(=O)[C@H](CC(N)=O)NC(=O)[C@@H](N)CC(C)C)C(=O)N[C@H](C(=O)N[C@H](C(=O)N[C@@H](CC(=O)O)C(=O)O)C(C)C)[C@@H](C)CC [LNFNYSLDFIIVD] (H-LNFNYSLDFIIVD-OH)  28 ± 6 nM
2. CC[C@H](C)[C@H](NC(=O)[C@H](Cc1c[nH]cn1)NC(=O)[C@H](CC(=O)O)NC(=O)[C@H](CC(C)C)NC(=O)[C@H](CO)NC(=O)[C@H](Cc1ccc(O)cc1)NC(=O)[C@H](CC(N)=O)NC(=O)[C@H](Cc1ccccc1)NC(=O)[C@H](CC(N)=O)NC(=O)[C@@H](N)CC(C)C)C(=O)N[C@H](C(=O)N[C@H](C(=O)N[C@@H](CC(=O)O)C(=O)O)C(C)C)[C@@H](C)CC [LNFNYSLDHIIVD] (H-LNFNYSLDHIIVD-OH)  29 ± 9 nM
3. CC[C@H](C)[C@H](NC(=O)[C@H](CCCCN)NC(=O)[C@H](CC(=O)O)NC(=O)[C@H](CC(C)C)NC(=O)CNC(=O)[C@H](Cc1ccc(O)cc1)NC(=O)[C@H](CC(N)=O)NC(=O)[C@H](Cc1ccccc1)NC(=O)[C@H](CC(N)=O)NC(=O)[C@@H](N)CC(C)C)C(=O)N[C@H](C(=O)N[C@H](C(=O)N[C@@H](CC(=O)O)C(=O)O)C(C)C)[C@@H](C)CC [LNFNYGLDKIIVD] (H-LNFNYGLDKIIVD-OH)  38 ± 5 nM
4. CC[C@H](C)[C@H](NC(=O)[C@H](CCCCN)NC(=O)[C@H](C)NC(=O)[C@H](CC(C)C)NC(=O)[C@H](CO)NC(=O)[C@H](Cc1ccc(O)cc1)NC(=O)[C@H](CC(N)=O)NC(=O)[C@H](Cc1ccccc1)NC(=O)[C@H](CC(N)=O)NC(=O)[C@@H](N)CC(C)C)C(=O)N[C@H](C(=O)N[C@H](C(=O)N[C@@H](CC(=O)O)C(=O)O)C(C)C)[C@@H](C)CC [LNFNYSLAKIIVD] (H-LNFNYSLAKIIVD-OH)  51 ± 18 nM
5. CC[C@H](C)[C@H](NC(=O)[C@H](CCCCN)NC(=O)[C@H](CC(=O)O)NC(=O)[C@H](CC(C)C)NC(=O)[C@H](C)NC(=O)[C@H](Cc1ccc(O)cc1)NC(=O)[C@H](CC(N)=O)NC(=O)[C@H](Cc1ccccc1)NC(=O)[C@H](CC(N)=O)NC(=O)[C@@H](N)CC(C)C)C(=O)N[C@H](C(=O)N[C@H](C(=O)N[C@@H](CC(=O)O)C(=O)O)C(C)C)[C@@H](C)CC [LNFNYALDKIIVD] (H-LNFNYALDKIIVD-OH)  55 ± 10 nM
6. CC[C@H](C)[C@H](NC(=O)[C@H](C)NC(=O)[C@H](CC(=O)O)NC(=O)[C@H](CC(C)C)NC(=O)[C@H](CO)NC(=O)[C@H](Cc1ccc(O)cc1)NC(=O)[C@H](CC(N)=O)NC(=O)[C@H](Cc1ccccc1)NC(=O)[C@H](CC(N)=O)NC(=O)[C@@H](N)CC(C)C)C(=O)N[C@H](C(=O)N[C@H](C(=O)N[C@@H](CC(=O)O)C(=O)O)C(C)C)[C@@H](C)CC [LNFNYSLDAIIVD] (H-LNFNYSLDAIIVD-OH)  65 ± 20 nM
7. CC[C@H](C)[C@H](NC(=O)[C@H](CCCCN)NC(=O)[C@H](CC(=O)O)NC(=O)[C@H](CC(C)C)NC(=O)[C@H](CO)NC(=O)[C@H](Cc1ccc(O)cc1)NC(=O)[C@H](CC(N)=O)NC(=O)[C@H](Cc1ccccc1)NC(=O)[C@H](CC(N)=O)NC(=O)[C@@H](N)CC(C)C)C(=O)N[C@H](C(=O)N[C@H](C(=O)N[C@@H](CC(=O)O)C(=O)O)C(C)C)[C@@H](C)CC [LNFNYSLDKIIVD] (H-LNFNYSLDKIIVD-OH)  73 ± 16 nM
8. CC[C@H](C)[C@H](NC(=O)[C@H](CCCCN)NC(=O)[C@H](CC(=O)O)NC(=O)[C@H](CC(C)C)NC(=O)[C@H](Cc1c[nH]cn1)NC(=O)[C@H](Cc1ccc(O)cc1)NC(=O)[C@H](CC(N)=O)NC(=O)[C@H](Cc1ccccc1)NC(=O)[C@H](CC(N)=O)NC(=O)[C@@H](N)CC(C)C)C(=O)N[C@H](C(=O)N[C@H](C(=O)N[C@@H](CC(=O)O)C(=O)O)C(C)C)[C@@H](C)CC [LNFNYHLDKIIVD] (H-LNFNYHLDKIIVD-OH)  80 ± 15 nM
9. CC[C@H](C)[C@H](NC(=O)[C@H](CCCCN)NC(=O)[C@H](CC(=O)O)NC(=O)[C@H](CC(C)C)NC(=O)[C@H](CCSC)NC(=O)[C@H](Cc1ccc(O)cc1)NC(=O)[C@H](CC(N)=O)NC(=O)[C@H](Cc1ccccc1)NC(=O)[C@H](CC(N)=O)NC(=O)[C@@H](N)CC(C)C)C(=O)N[C@H](C(=O)N[C@H](C(=O)N[C@@H](CC(=O)O)C(=O)O)C(C)C)[C@@H](C)CC [LNFNYMLDKIIVD] (H-LNFNYMLDKIIVD-OH)  146 ± 9 nM
10. CC[C@H](C)[C@H](NC(=O)[C@H](CC(=O)O)NC(=O)[C@H](CC(=O)O)NC(=O)[C@H](CC(C)C)NC(=O)[C@H](CO)NC(=O)[C@H](Cc1ccc(O)cc1)NC(=O)[C@H](CC(N)=O)NC(=O)[C@H](Cc1ccccc1)NC(=O)[C@H](CC(N)=O)NC(=O)[C@@H](N)CC(C)C)C(=O)N[C@H](C(=O)N[C@H](C(=O)N[C@@H](CC(=O)O)C(=O)O)C(C)C)[C@@H](C)CC [LNFNYSLDDIIVD] (H-LNFNYSLDDIIVD-OH)  176 ± 65 nM
11. CC[C@H](C)[C@H](NC(=O)[C@H](CCCCN)NC(=O)[C@H](CC(=O)O)NC(=O)[C@H](CC(C)C)NC(=O)[C@H](CC(N)=O)NC(=O)[C@H](Cc1ccc(O)cc1)NC(=O)[C@H](CC(N)=O)NC(=O)[C@H](Cc1ccccc1)NC(=O)[C@H](CC(N)=O)NC(=O)[C@@H](N)CC(C)C)C(=O)N[C@H](C(=O)N[C@H](C(=O)N[C@@H](CC(=O)O)C(=O)O)C(C)C)[C@@H](C)CC [LNFNYNLDKIIVD] (H-LNFNYNLDKIIVD-OH)  290 ± 90 nM
12. CC[C@H](C)[C@H](NC(=O)[C@H](CCCCN)NC(=O)[C@H](CC(=O)O)NC(=O)[C@H](CC(C)C)NC(=O)[C@@H]1CCCN1C(=O)[C@H](Cc1ccc(O)cc1)NC(=O)[C@H](CC(N)=O)NC(=O)[C@H](Cc1ccccc1)NC(=O)[C@H](CC(N)=O)NC(=O)[C@@H](N)CC(C)C)C(=O)N[C@H](C(=O)N[C@H](C(=O)N[C@@H](CC(=O)O)C(=O)O)C(C)C)[C@@H](C)CC [LNFNYPLDKIIVD] (H-LNFNYPLDKIIVD-OH)  290 ± 70 nM
13. CC[C@H](C)[C@H](NC(=O)[C@H](CCCCN)NC(=O)[C@H](CC(=O)O)NC(=O)[C@H](CC(C)C)NC(=O)[C@H](CO)NC(=O)[C@H](Cc1ccc(O)cc1)NC(=O)[C@H](CC(N)=O)NC(=O)[C@H](Cc1ccccc1)NC(=O)[C@H](CC(N)=O)NC(=O)[C@@H](N)CC(C)C)C(=O)N[C@@H](Cc1c[nH]cn1)C(=O)N[C@H](C(=O)N[C@@H](CC(=O)O)C(=O)O)C(C)C [LNFNYSLDKIHVD] (H-LNFNYSLDKIHVD-OH)  740 ± 170 nM
14. CC[C@H](C)[C@H](NC(=O)[C@H](CCCCN)NC(=O)[C@H](CC(=O)O)NC(=O)[C@H](CC(C)C)NC(=O)[C@H](CO)NC(=O)[C@H](Cc1ccc(O)cc1)NC(=O)[C@H](CC(N)=O)NC(=O)[C@H](Cc1ccccc1)NC(=O)[C@H](CC(N)=O)NC(=O)[C@@H](N)CC(C)C)C(=O)N[C@@H](CC(=O)O)C(=O)N[C@H](C(=O)N[C@@H](CC(=O)O)C(=O)O)C(C)C [LNFNYSLDKIDVD] (H-LNFNYSLDKIDVD-OH)  790 ± 120 nM
15. CC[C@H](C)[C@H](NC(=O)[C@H](CCCCN)NC(=O)[C@H](CC(=O)O)NC(=O)[C@H](CC(C)C)NC(=O)[C@H](CO)NC(=O)[C@H](Cc1ccc(O)cc1)NC(=O)[C@H](CC(N)=O)NC(=O)[C@H](Cc1ccccc1)NC(=O)[C@H](CC(N)=O)NC(=O)[C@@H](N)CC(C)C)C(=O)N[C@@H](CCC(=O)O)C(=O)N[C@H](C(=O)N[C@@H](CC(=O)O)C(=O)O)C(C)C [LNFNYSLDKIEVD] (H-LNFNYSLDKIEVD-OH)  890 ± 290 nM
16. CC[C@H](C)[C@H](NC(=O)[C@H](CCCCN)NC(=O)[C@H](CC(=O)O)NC(=O)[C@H](CC(C)C)NC(=O)[C@H](CO)NC(=O)[C@H](Cc1ccc(O)cc1)NC(=O)[C@H](CC(N)=O)NC(=O)[C@H](Cc1ccccc1)NC(=O)[C@H](CC(N)=O)NC(=O)[C@@H](N)CC(C)C)C(=O)N[C@@H](C)C(=O)N[C@H](C(=O)N[C@@H](CC(=O)O)C(=O)O)C(C)C [LNFNYSLDKIAVD] (H-LNFNYSLDKIAVD-OH)  940 ± 250 nM
17. CC[C@H](C)[C@H](NC(=O)[C@H](CCCCN)NC(=O)[C@H](CC(=O)O)NC(=O)[C@H](CC(C)C)NC(=O)[C@H](CC(=O)O)NC(=O)[C@H](Cc1ccc(O)cc1)NC(=O)[C@H](CC(N)=O)NC(=O)[C@H](Cc1ccccc1)NC(=O)[C@H](CC(N)=O)NC(=O)[C@@H](N)CC(C)C)C(=O)N[C@H](C(=O)N[C@H](C(=O)N[C@@H](CC(=O)O)C(=O)O)C(C)C)[C@@H](C)CC [LNFNYDLDKIIVD] (H-LNFNYDLDKIIVD-OH)  1040 nM
18. CC[C@H](C)[C@H](NC(=O)[C@H](CCCCN)NC(=O)[C@H](CC(=O)O)NC(=O)[C@H](CC(C)C)NC(=O)[C@H](CCCNC(=N)N)NC(=O)[C@H](Cc1ccc(O)cc1)NC(=O)[C@H](CC(N)=O)NC(=O)[C@H](Cc1ccccc1)NC(=O)[C@H](CC(N)=O)NC(=O)[C@@H](N)CC(C)C)C(=O)N[C@H](C(=O)N[C@H](C(=O)N[C@@H](CC(=O)O)C(=O)O)C(C)C)[C@@H](C)CC [LNFNYRLDKIIVD] (H-LNFNYRLDKIIVD-OH)  1230 nM
19. CC[C@H](C)[C@H](NC(=O)[C@H](CCCCN)NC(=O)[C@H](CC(=O)O)NC(=O)[C@H](CC(C)C)NC(=O)[C@H](CCC(N)=O)NC(=O)[C@H](Cc1ccc(O)cc1)NC(=O)[C@H](CC(N)=O)NC(=O)[C@H](Cc1ccccc1)NC(=O)[C@H](CC(N)=O)NC(=O)[C@@H](N)CC(C)C)C(=O)N[C@H](C(=O)N[C@H](C(=O)N[C@@H](CC(=O)O)C(=O)O)C(C)C)[C@@H](C)CC [LNFNYQLDKIIVD] (H-LNFNYQLDKIIVD-OH)  1500 nM
20. CC[C@H](C)[C@H](NC(=O)[C@H](CCCCN)NC(=O)[C@H](CC(=O)O)NC(=O)[C@H](CC(C)C)NC(=O)[C@H](CC(C)C)NC(=O)[C@H](Cc1ccc(O)cc1)NC(=O)[C@H](CC(N)=O)NC(=O)[C@H](Cc1ccccc1)NC(=O)[C@H](CC(N)=O)NC(=O)[C@@H](N)CC(C)C)C(=O)N[C@H](C(=O)N[C@H](C(=O)N[C@@H](CC(=O)O)C(=O)O)C(C)C)[C@@H](C)CC [LNFNYLLDKIIVD] (H-LNFNYLLDKIIVD-OH)  3600 nM
21. CC[C@H](C)[C@H](NC(=O)[C@H](CCCCN)NC(=O)[C@H](CC(=O)O)NC(=O)[C@H](CC(C)C)NC(=O)[C@H](CCC(=O)O)NC(=O)[C@H](Cc1ccc(O)cc1)NC(=O)[C@H](CC(N)=O)NC(=O)[C@H](Cc1ccccc1)NC(=O)[C@H](CC(N)=O)NC(=O)[C@@H](N)CC(C)C)C(=O)N[C@H](C(=O)N[C@H](C(=O)N[C@@H](CC(=O)O)C(=O)O)C(C)C)[C@@H](C)CC [LNFNYELDKIIVD] (H-LNFNYELDKIIVD-OH)  116000 nM
